These molecules were tested on Plasmodium falciparum (assay: Antimalarial activity against Plasmodium falciparum 3D7 infected human erythrocytes after 24 hrs by [3H]hypoxanthine uptake).
Type: functional, organism-based
Work on `O=S(=O)(c1ccccc1)N1CCC2(CC1)COC1(OO2)C2CC3CC(C2)CC1C3` (stereo not given) yielded an IC50 of 710 nM. `O=S(=O)(c1ccccc1)N1CCC2(CC1)OCC1(OO2)C2CC3CC(C2)CC1C3` (stereo not given) was tested, and the IC50 was greater than 1000 nM. `O=S(=O)(c1ccccc1)N1CCC2(CC1)OOC1(O2)C2CC3CC(C2)CC1C3` (stereo not given) gave an IC50 of 6.22 nM. `O=S(=O)(c1ccccc1)N1CCC2(CC1)OOC1(OO2)C2CC3CC(C2)CC1C3` was tested, and the IC50 was 10.7 nM. With `CCS(=O)(=O)N1CCC2(CC1)COC1(OO2)C2CC3CC(C2)CC1C3` (stereo not given) the IC50 was 180 nM. `CC(=O)N1CCC2(CC1)COC1(OO2)C2CC3CC(C2)CC1C3` (stereo not given) was tested, and the IC50 was 183 nM. `C1CC2(CCN1)COC1(OO2)C2CC3CC(C2)CC1C3` (stereo not given) was tested, and the IC50 was 121 nM. For `CC(C)(C)OC(=O)N1CCC2(CC1)COC1(OO2)C2CC3CC(C2)CC1C3` (stereo not given), the IC50 was 198 nM. In the case of `O=C(OCC1c2ccccc2-c2ccccc21)N1CCC2(CC1)COC1(OO2)C2CC3CC(C2)CC1C3` (stereo not given), the IC50 is reported as 174 nM. With `CO[C@H]1O[C@@H]2O[C@@]3(C)CC[C@H]4[C@H](C)CC[C@@H]([C@H]1C)[C@@]24OO3` [ARTEMETHER] the IC50 was 1.26 nM.
